What was measured:
[1] = system: WEHI-164 fibrosarcoma; test: Tumor growth in WEHI-164 fibrosarcoma-bearing mice; assay type: in vivo; details: WEHI-164 model, i.p., biweekly, 0.032 to 20 μg
Text: Arrows indicate the time of treatment. Tumor volumes are shown. Mean±S.E (6 or 12 mice/group).
Studies in animal models were approved by the Ethical Committee of the San Raffaele Scientific Institute, and performed according to the prescribed guidelines. BALB/c (Harlan) or C57BL/6N mice (Charles River Laboratories), weighing 16 to 18 g, were challenged with s.c. injection in the left flank of 10^6 WEHI-164 or 7×10^4 RMA living cells. […] Tumor growth was monitored daily by measuring tumor volumes with calipers, as previously described [30]. Animals were sacrificed before tumors reached a diameter of 1.0 to 1.5 cm. Tumor sizes are shown as mean±SE (6 mice/group in each experiment).

[2] = system: CD13-positive (HT-1080 and HUVECs) cells; test: Binding of NGR peptide/Qdot to CD13-positive cells (fluorescence microscopy); assay type: cell-based, human; details: 2 h at 37° C.
Procedure: (§1) (B) Binding of head-to-tail cyclized NGR peptides and disulphide constrained NGR peptide (ac-NGR-2C-TNF1-11, corresponding to acetylated-[…]) (SEQ ID NO:33) conjugated to fluorescent nanoparticles (Qdot) to HT-1080, human umbilical vein cells (HUVECs), and MCF-7 cells. NGR#/Qdots were prepared using the sulfo-SMCC linker (black, bars), whereas ac-NGR-2C-TNF1-11/Qdot were prepared using the BS3 linker (white, bars). Linker-Qdot, i.e. lacking the peptide, are indicated as None. Quantification of staining intensity was performed by using the Photoshop software. Six images were analyzed for each condition. Representative images are shown. Magnification, ×400; scale bar, 20 μm; red, Qdot; blue, nuclear staining with DAPI.
(§2) The binding of NGR-peptide/Qdot conjugates to HT-1080, HUVECs and MCF-7, was analyzed as follows: the cells were grown in chamber slides (3-4×10^4 cell/well, plated 48 h before the experiment). After washing with DMEM containing 1% fetal bovine serum (binding buffer), each NGR-peptide/Qdot conjugate (3-10 nM, in binding buffer) was added to the cells and left to incubate for 2 h at 37° C. in 5% CO2. […] The cells were then analyzed using an Axioscop 40 FL microscope (Carl Zeiss, Germany) equipped with AxioCam MRc5 digital camera and Axiovison software (Carl Zeiss).

[3] = system: CD13-negative MCF-7 cells; test: Binding of NGR peptide/Qdot to CD13-negative cells (fluorescence microscopy); assay type: cell-based, human
Procedure: as §1, §2

Compound	tumor growth [1]	binding to CD13-positive cells [2]	binding to CD13-negative cells [3]
CC(C)[C@H]1C(=O)N[C@@H](CCCNC(=N)N)C(=O)NCC(=O)N[C@@H](CC(=O)O)C(=O)N[C@H](Cc2ccccc2)C(=O)N1C [Cilengitide, cyclo(arginylglycyl-aspartyl-D-phenylalanyl-N-methyl-valyl)]	can delay the growth		
NGR#3-Qdot: NGR#3 coupled to sulfo-SMCC-activated Qdot fluorescent nanoparticles (cyclo(CNGRGG); not fully specified (residue 1); also: linker joined to Qdot605 nanoparticle)		could bind CD13-positive cells	failed to bind

From patent US9561289B2, “Peptides for inhibiting tumor growth” (OSPEDALE SAN RAFFAELE SRL, priority 2012, dated 2017)
